How the values were obtained:
central nervous system [1] = assay: Impairment of motor coordination and righting reflex in mice (hypnotic properties); format: in vivo; conditions: Mus musculus, ip, read-out: ED50, Impairment of motor coordination and righting reflex
Description: (§1) Decreasing the spontaneous activity in mice after intraperitoneal administration of an effective amount of the compounds was taken as a measure of the sedative effect, while impairment of motor coordination and righting reflex were related to hypnotic properties. The myorelaxing characteristics were evaluated by considering the body tone, while the anxiety-relieving effect was measured on the basis of the inhibition of the secondary conditioned avoidance response.

central nervous system [2] = assay: Body tone in mice (myorelaxing characteristics); format: in vivo; conditions: Mus musculus, ip, read-out: ED50, Body tone
Description: as §1

central nervous system [3] = assay: Decrease of spontaneous activity in mice (sedative effect); format: in vivo; conditions: Mus musculus, ip, read-out: ED50, Spontaneous activity
Description: as §1

central nervous system [4] = assay: Inhibition of secondary conditioned avoidance response in mice (anxiety-relieving effect); format: in vivo; conditions: Mus musculus, ip, read-out: ED50, Secondary conditioned avoidance response
Description: as §1

[5] = Toxicity, LD50 in mice i.p.; conditions: mouse, in vivo, ip
[6] = LD50 to which the edema test dose is related; format: in vivo; conditions: rats
[7] = system: carrageenin-induced edema; assay: Carrageenin-induced edema test (anti-inflammatory activity); format: in vivo; conditions: 100 mg/kg p.o., rats
Description: |Carrageenin-induced edema test

| SMILES | ED50 (central nervous system [1]; i.p. in mice) [mg/kg] | ED50 (central nervous system [2]; i.p. in mice) [mg/kg] | ED50 (central nervous system [3]; i.p. in mice) [mg/kg] | ED50 (central nervous system [4]; i.p. in mice) [mg/kg] | LD50 [5] [mg/kg] | dose of 100 mg/kg per os as fraction of the LD50 value [6] | % Decrease of the edema [7] [%] | other results |
| --- | --- | --- | --- | --- | --- | --- | --- | --- |
| CC1NOCCc2ccccc21 (stereo not drawn) [Example 4, 1-Methyl-1,2,4,5-tetrahydro-3,2-benzoxazepine] | 60 | 20 | 100 | 60 | – | – | – | – |
| CC1c2ccccc2CCON1C(N)=O (stereo not drawn) [Example 6, 2-Carbamyl-1-methyl-1,2,4,5-tetrahydro-3,2-benzoxazepine] | 60 | 80 | 60 | 15 | > 500 | – | – | – |
| NC(=O)OCCN1Cc2ccccc2CCO1 [Example 9, 2-(2-Carbamyloxyethyl)-1,2,4,5-tetrahydro-3,2-benzoxazepine] | – | – | – | – | > 500 | – | – | ED50 (central nervous system [1]): 100 mg/kg; ED50 (central nervous system [2]): 300 mg/kg; ED50 (central nervous system [3]): 100 mg/kg; ED50 (central nervous system [4]): 30 mg/kg |
| CC(C)=CC(=O)N1OCCc2ccccc2C1C (stereo not drawn) [Example 12, 1-Methyl-2-(3-methyl-2-butenoyl)-1,2,4,5-tetrahydro-3,2-benzoxazepine] | – | – | – | – | > 500 | – | – | – |
| CC1c2ccccc2CCON1C (stereo not drawn) [Example 7, 1,2-Dimethyl-1,2,4,5-tetrahydro-3,2-benzoxazepine] | – | – | – | – | > 500 | about one-tenth to about one-fifth | 30 | – |
| CN1Cc2ccccc2CCO1 [Example 16] | 120 | 10 | 100 | 40 | > 500 | about one-tenth to about one-fifth | 30.5 | – |
| CCN(CC)C(=O)N1OCCc2ccccc2C1C (stereo not drawn) [Example 11, 2-Diethylcarbamyl-1-methyl-1,2,4,5-tetrahydro-3,2-benzoxazepine] | – | – | – | – | > 500 | about one-tenth to about one-fifth | 31 | – |
| C=CCN1OCCc2ccccc2C1C (stereo not drawn) [Example 17] | – | – | – | – | > 500 | – | – | – |
| CNC(=O)N1OCCc2ccccc2C1C (stereo not drawn) [Example 15, 1-Methyl-2-methylcarbamyl-1,2,4,5-tetrahydro-3,2-benzoxazepine] | – | – | – | – | > 500 | about one-tenth to about one-fifth | 31.5 | – |
| CC1c2ccccc2CCON1C(=O)N1CCOCC1 (stereo not drawn) [Example 24] | – | – | – | – | > 500 | about one-tenth to about one-fifth | 32 | – |
| CC(=O)N1OCCc2ccccc2C1C (stereo not drawn) [Example 18, 2-acetyl-1-methyl-1,2,4,5-tetrahydro-3,2-benzoxazepine] | 60 | 200 | 100 | 60 | – | – | – | – |
